Article PMC12093383, “Protoporphyrin IX-Derived Ruthenium(II) Complexes for Photodynamic Therapy in Gastric Cancer Cells” (Inorganic Chemistry, 2025)
Read-outs that look alike come from different tables or passages of the source.

Legend:
AGS gastric cancer cells = test: MTT survival assay, dark or white-light irradiation; format: cell-based, human; conditions: for IC50: 8 h incubation, MTT after 48 h; for PI (phototoxicity index): IC50 dark/light ratio
Description: To assess the anticancer potential of compounds, the cytotoxicity was evaluated on the gastric cancer cell line AGS. The cells were treated in the dark for 8 h with increasing concentrations of the different compounds (Table 2). Cisplatin was used as a positive cytotoxic and clinically used drug control, and verteporfin (VP) or protoporphyrin-IX (PpIX) were used as positive PDT controls. Cells were then irradiated for 15 min with white light or kept in the dark and further cultivated for 48h in the dark. An MTT test was then performed to evaluate the impact of the different treatments on cell survival. […] The lower cytotoxicity of Ru-2 is most likely due to its low stability in biological media, as determined by stability tests in PBS/DMSO.
The human gastric adenocarcinoma (AGS) cell line was acquired from ATCC (Manassa, VA). AGS cells were cultured in RPMI 1640 medium (Roswell Park Memorial Institute) containing 10% fetal bovine serum (FBS) at 37 °C in a humidified atmosphere of 95% air and 5% CO2.
The antiproliferative activity of cancer cells was determined by the 3-(4,5-dimethylthiazol-2-yl)-2,5-diphenyltetrazolium bromide (MTT) assay. Cells were seeded at 10.000 cells per well (200 μL) in Cellstar 96-well plates (Greiner Bio-One) and further incubated for 24 h. Cells were treated with each compound at different concentrations for 8 h in the dark. After this time, the medium was removed, fresh medium was added, and cells were kept in the dark or irradiated with white light for 15 min. Subsequently, the plates were incubated in the dark for an additional 48 h, and the MTT assay was performed as previously described in the literature.[34] Measurements were performed at 550 nm with the Tristar2Multimode Reader (Berthold Technologies).

[1] = Fluorescence quantum yield; format: physicochemical; conditions: DMSO, ligands excited at 503 nm, ruthenium complexes at 573 nm, relative to verteporfin
Description: Emission spectra were measured in DMSO. The free ligands were excited at 503 nm, while the ruthenium complexes were excited at 573 nm. For the calculation of fluorescence quantum yield, verteporfin (Φf = 0.0085) was used as a reference.[46] In all metal-free compounds, an intense emission band at approximately 630–670 nm and a small band at approximately 700–750 nm were observed, assigned to Q (0–0) and Q (1–0) transitions, respectively.[48] […] A similar behavior has been observed in palladium(II) and nickel(II) metaloporphyrins, where the fluorescence was quenched due to electron or energy transfer.[49]
The fluorescence quantum yields were determined using verteporfin in DMSO as a reference (Φf = 0.0085).[46],[89] The free ligands were excited at 503 nm, and the ruthenium complexes at 573 nm. The quantum yield was calculated following eq 1.[90],[91] [drawing 1] 1 Where ST and X are standard and analyte, respectively, Φf is the fluorescence quantum yield, Grad is the gradient from the area of integration fluorescence intensity vs absorbance, and ηX and ηST are the refractive index of the solvent used to measure the fluorescence spectrum of the analyte and the standard, respectively.

[2] = Shake-flask partition coefficient, 1-octanol/PBS; format: physicochemical; conditions: average of three independent experiments at 27 °C
Text: The n-octanol/water partition coefficient (log Po/w) is a well-established parameter that helps to predict the biological activity of drugs and other biologically active compounds.[56] The so-called “shake-flask” method was adopted to determine the partition coefficient using 1-octanol and PBS (phosphate-buffered saline) as solvents.[57] All the porphyrin derivatives presented low lipophilicity values. At the same time, the chlorin compounds were much more lipophilic as expected due to the reduction of one of the pyrrole rings and the formation of the new ring in the chlorin.
The partition coefficient (log Po/PBS) of each compound was determined experimentally by the “shake-flask” method at room temperature following reported methods.[57],[96] A mixture of 1-octanol and PBS in equal amounts was shaken for 24 h, after which the phases were allowed to separate for 24 h. Then, a 1 × 10^–5 M solution of each compound is prepared in 1-octanol/PBS (1:1), and the mixture is left to stir for 24 h. After 24 h of stirring, the mixture is left for 24 h to separate the two phases. Finally, the concentration of each compound in the two phases is determined by UV–vis spectroscopy. logP was determined by the following eq 3.[97] [drawing 3] 3 Where Aap is the absorbance after partition, and Abp is the absorbance before partition.

LC3B = test: Western blot of LC3B-I/II in AGS cells; format: cell-based, human; conditions: IC50 concentration 4 h, white light 15 min, 24 h in the dark
Text: (§1) The therapeutic effects of PDT treatment on cancer cells are thought to be mainly related to ROS production, which are highly reactive and cytotoxic species that can induce cell death by apoptosis.[62] It has also been shown that ruthenium compounds can induce different cell death pathways.[63],[64] For these reasons, we initially analyzed by Western blot the expression of cleaved caspase 3 and PARP, which are two well-known markers for programmed cell death apoptosis.[65]−[70] […] The cells were then further cultivated in the dark for 24 h. […] Then, the protein expression of CHOP, a key component of the endoplasmic reticulum (ER) stress-mediated apoptosis pathway and known to be induced by ruthenium compounds, was evaluated.[71],[72] […] To investigate this, the expression and conversion of LC3B–I to LC3B–II was analyzed by Western blot (Figure 11).
(§2) Figure 11 Effects of photoactivation of 1, Ru-1, 3B, and Ru-3B on protein expression on different cell death markers in AGS gastric cancer cells. […] Protein extraction was performed, and expression of the different markers was determined by Western blot. […]
(§3) Cells were then lysed in lysis buffer (50 mM Tris–HCl pH 6.7, NaCl 150 mM, NP40 1%). Total protein concentration was determined using Bradford assay and adjusted to the same quantity (50 μg) for each experiment. […] Protein bands were quantified using ImageJ software.[99] […]

COX2 = test: Western blot of COX2 in AGS cells; format: cell-based, human; conditions: IC50 concentration 4 h; for COX2 expression in the dark: kept in the dark
Description: Figure 12 Effects of photoactivation of 1, Ru-1, 3B and Ru-3B on protein expression of ferroptosis and inflammation markers in AGS gastric cancer cells. […] (a) Expression of the different markers was determined by Western blot. GAPDH was used as a loading control. Representative Western blot of three independent experiments. ctl = control, untreated cells. Graphs represent the quantification of three independent experiments of GPX4 (b) and COX2 (c) expression, compared to not-treated AGS cells (ctl) and normalized to GAPDH expression. Bars above the colons indicate the comparison of dark versus light for each compound. The dark and light results of each compound were compared to those of the respective untreated control condition (ctl). Statistical analysis: 2-way Anova *<0.05, **<0.01, ***<0.001, ns = not-significant.
COX2 is known for its central role in inflammation and prostaglandins (PGs) production. In normal cells, COX2 expression is almost absent, whereas in cancer cells, it is frequently overexpressed.[84] Importantly, it has been shown that in cancers, COX2 is not only a mediator of inflammation but could also be a mediator of oxidative stress and inhibition of apoptosis, as well as cancer cell proliferation.[85]
Cells were then lysed in lysis buffer (50 mM Tris–HCl pH 6.7, NaCl 150 mM, NP40 1%). Total protein concentration was determined using Bradford assay and adjusted to the same quantity (50 μg) for each experiment. A total of 30 μg of proteins were resolved by 6–15% SDS-PAGE (depending on protein molecular weight) and transferred to nitrocellulose blotting membranes according to standard methods. Membranes were blocked with blocking buffer (containing 5% milk powder or 1% BSA) for 1 h at room temperature, then washed three times with TBST or PBST (containing 0.1% Tween-20) and incubated with primary antibodies at 4 °C overnight. The following day, the membranes were washed thrice with […]. […] Protein bands were quantified using ImageJ software.[99] […]

GPX4 = test: Western blot of GPX4 in AGS cells; format: cell-based, human; conditions: IC50 concentration 4 h, white light 15 min, 24 h in the dark
Description: Ferroptosis, another form of nonapoptotic cell death, can promote inflammation and is triggered by iron-catalyzed lipid peroxidation via Fenton-type reactions, where the main ROS responsible for lipid damage are hydroxyl radical and superoxide radical.[81],[82] Glutathione peroxidase (GPX4) can suppress lipid peroxidation and protect cells from ferroptosis.[83] To investigate the impact of the different compounds on GPX4 expression, AGS cells were treated as described above, and then GPX4 expression was analyzed by Western blot (Figure 12a).
Figure 12 Effects of photoactivation of 1, Ru-1, 3B and Ru-3B on protein expression of ferroptosis and inflammation markers in AGS gastric cancer cells. […] (a) Expression of the different markers was determined by Western blot. GAPDH was used as a loading control. Representative Western blot of three independent experiments. ctl = control, untreated cells. Graphs represent the quantification of three independent experiments of GPX4 (b) and COX2 (c) expression, compared to not-treated AGS cells (ctl) and normalized to GAPDH expression. […]
as §3

[3] = system: cleaved caspase 3 and PARP; test: Western blot of apoptosis markers in AGS cells; format: cell-based, human; conditions: IC50 concentration 4 h, white light 15 min, 24 h in the dark
Text: as §1, §2, §3

[4] = Homo sapiens, AGS, kept in dark, N = 3, read-out: IC50 dark
[5] = Homo sapiens, AGS, white light 15 min, N = 3, read-out: IC50 light

| SMILES | IC50 (AGS gastric cancer cells; [4]) | IC50 (AGS gastric cancer cells; [5]) | Φf luminescence quantum yield [1] | log PO/PBS [2] | IC50 (AGS gastric cancer cells; white light 15 min, N = 3, read-out: IC50 light) | LC3B-I/II expression (LC3B) | COX2 expression in the dark (COX2) | PI (phototoxicity index) (AGS gastric cancer cells) | GPX4 expression (GPX4) | IC50 (AGS gastric cancer cells; kept in dark, N = 3, read-out: IC50 dark) | cleavage of caspase 3 and PARP [3] | COX2 expression upon light irradiation (COX2; white light 15 min, 24 h in the dark, vs untreated) |
| --- | --- | --- | --- | --- | --- | --- | --- | --- | --- | --- | --- | --- |
| C=Cc1c(C)c2cc3nc(cc4[nH]c(cc5nc(cc1[nH]2)C(C)=C5CCC(=O)OC)c(CCC(=O)OC)c4C)C1(C)C3=CCC(C(=O)OC)=C1C(=O)OC (stereo not drawn) [3A] | > 100000 nM | 100 ± 60 nM | 1.2% | 1.478 ± 0.083 |  |  |  |  |  |  |  |  |
| C=Cc1c(C)c2cc3nc(cc4[nH]c(cc5nc(cc1[nH]2)C1(C)C5=CCC(C(=O)OC)=C1C(=O)OC)c(C)c4CCC(=O)OC)C(CCC(=O)OC)=C3C (stereo not drawn) [3B] | > 100000 nM | 180 nM | 1.2% | 1.661 ± 0.088 | 200 ± 21 nM | marked induction of LC3B–I/II expression | reduction in COX2 expression in the dark |  |  |  |  |  |
| C=Cc1c(C)c2cc3nc(cc4[nH]c(cc5nc(cc1[nH]2)C(C)=C5CCC(=O)OCc1ccccc1)c(CCC(=O)OCc1ccccc1)c4C)C1(C)C3=CCC(C(=O)OC)=C1C(=O)OC (stereo not drawn) [4A] | > 100000 nM | 2500 ± 231 nM | 1.0% | 1.368 ± 0.042 |  |  |  | >40 |  |  |  |  |
| C=Cc1c(C)c2cc3nc(cc4[nH]c(cc5nc(cc1[nH]2)C1(C)C5=CCC(C(=O)OC)=C1C(=O)OC)c(C)c4CCC(=O)OCc1ccccc1)C(CCC(=O)OCc1ccccc1)=C3C (stereo not drawn) [4B] | > 100000 nM | 2800 ± 265 nM | 1.0% | 1.682 ± 0.176 |  |  |  | >36 |  |  |  |  |
| C=CC1=C(C)c2cc3[nH]c(cc4nc(cc5[nH]c(cc1n2)c(C)c5CCC(=O)O)C(CCC(=O)O)=C4C)c(C)c3C=C [PpIX, protoporphyrin IX] | > 100000 nM | 500 nM |  |  |  |  | reduction in COX2 expression in the dark | >200 | decrease in GPX4 expression |  |  |  |
| N.N.[Cl][Pt][Cl] [cisplatin, reference compound] |  |  |  |  |  |  |  |  |  | 29000 nM |  |  |
| C=CC1=C(C)c2cc3[nH]c(cc4nc(cc5[nH]c(cc1n2)c(C)c5CCC(=O)OC)C(CCC(=O)OC)=C4C)c(C)c3C=C [compound 1] | > 100000 nM | 1700 ± 184 nM | 0.80% | 0.957 ± 0.056 |  |  |  | > 17 |  |  | as efficient as VP | significantly reduce COX2 expression |
| C=CC1=C(C)c2cc3[nH]c(cc4nc(cc5[nH]c(cc1n2)c(C)c5CCC(=O)OCc1ccccc1)C(CCC(=O)OCc1ccccc1)=C4C)c(C)c3C=C [compound 2] | > 100000 nM | 2600 ± 100 nM | 0.80% | 1.063 ± 0.142 |  |  |  | > 18 |  |  |  |  |
